The text below walks through data of patent US20250170248A1, “SMARCA DEGRADERS AND USES THEREOF” (Kymera Therapeutics, Inc., priority 2021, published 2025).

Common to all, as to assay type: cell-based
In experiment [1] the target is T1, SMARCA2 (Homo sapiens, UniProt P51531). The experiment is described as follows: MSD SMARCA2 degradation in A549 cell line. The note with it: 24 h; for Dmax: A549, A549 cells; for DC50: A549 cells, read-out: SMARCA2 MSD A549 degradation 24 h: Average external-Abs DC50. The gist of the method: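 SMARCA2 protein remaining after 24 h exposure of A549 cells (top concentration 1000 nM, 3-fold dilutions) was measured by MSD electrochemiluminescence immunoassay of cell lysates. Results are given as binned DC50 and maximal degradation (Dmax) codes.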
T1 sequence (P51531 whole entry): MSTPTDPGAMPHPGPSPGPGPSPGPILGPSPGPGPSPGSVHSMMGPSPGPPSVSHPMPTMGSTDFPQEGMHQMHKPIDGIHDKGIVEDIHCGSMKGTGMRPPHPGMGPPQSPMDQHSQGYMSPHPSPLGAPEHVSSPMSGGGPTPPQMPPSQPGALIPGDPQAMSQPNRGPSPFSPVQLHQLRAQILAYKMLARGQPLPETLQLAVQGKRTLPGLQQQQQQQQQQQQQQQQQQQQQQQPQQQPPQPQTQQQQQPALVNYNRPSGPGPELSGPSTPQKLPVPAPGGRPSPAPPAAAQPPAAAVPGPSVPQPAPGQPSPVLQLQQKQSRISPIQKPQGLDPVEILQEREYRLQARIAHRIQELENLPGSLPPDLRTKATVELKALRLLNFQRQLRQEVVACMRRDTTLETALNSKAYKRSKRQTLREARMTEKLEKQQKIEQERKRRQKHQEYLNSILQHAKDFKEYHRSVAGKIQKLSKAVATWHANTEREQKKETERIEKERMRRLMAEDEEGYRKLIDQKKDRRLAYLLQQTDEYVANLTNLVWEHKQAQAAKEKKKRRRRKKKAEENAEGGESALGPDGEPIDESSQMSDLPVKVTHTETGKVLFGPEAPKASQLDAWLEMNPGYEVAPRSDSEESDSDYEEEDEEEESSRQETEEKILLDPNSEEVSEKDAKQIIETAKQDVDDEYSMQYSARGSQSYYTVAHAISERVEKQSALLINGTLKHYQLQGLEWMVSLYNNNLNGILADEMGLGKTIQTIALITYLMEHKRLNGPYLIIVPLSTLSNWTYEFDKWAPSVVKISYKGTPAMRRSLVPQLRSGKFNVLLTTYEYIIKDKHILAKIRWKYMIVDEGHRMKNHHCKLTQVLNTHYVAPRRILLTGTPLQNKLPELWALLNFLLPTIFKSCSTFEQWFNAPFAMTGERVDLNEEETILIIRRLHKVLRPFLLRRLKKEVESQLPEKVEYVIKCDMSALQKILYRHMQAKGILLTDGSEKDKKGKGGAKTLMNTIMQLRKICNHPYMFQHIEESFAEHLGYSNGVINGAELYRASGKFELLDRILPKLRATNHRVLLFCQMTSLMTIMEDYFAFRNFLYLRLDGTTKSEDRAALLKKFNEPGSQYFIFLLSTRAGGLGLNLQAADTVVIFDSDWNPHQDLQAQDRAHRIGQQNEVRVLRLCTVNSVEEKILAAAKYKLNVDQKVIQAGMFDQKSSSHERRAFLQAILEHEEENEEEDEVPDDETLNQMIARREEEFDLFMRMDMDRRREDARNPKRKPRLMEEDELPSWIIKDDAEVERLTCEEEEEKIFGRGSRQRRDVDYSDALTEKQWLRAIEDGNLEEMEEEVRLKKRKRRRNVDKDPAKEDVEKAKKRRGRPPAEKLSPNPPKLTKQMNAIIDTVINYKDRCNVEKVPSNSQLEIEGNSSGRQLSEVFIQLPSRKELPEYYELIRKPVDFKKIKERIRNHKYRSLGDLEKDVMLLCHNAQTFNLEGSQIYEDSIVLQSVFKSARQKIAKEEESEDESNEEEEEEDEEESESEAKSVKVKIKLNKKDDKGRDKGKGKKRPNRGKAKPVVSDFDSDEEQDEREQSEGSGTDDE

Experiment [2] has as its target T2, SMARCA4 (Homo sapiens, UniProt P51532).
T2 construct: SMARCA2/SMARCA4 protein degradation selectivity in MV4-11 cells; endogenous in cells; host or cells: MV4-11
The experiment is described as follows: SMARCA4 Western blot degradation in MV4-11 cells. The note with it: 24 h; for Dmax: MV4-11, MV4-11 cells, read-out: SMARCA4 MSD MV411 degradation 24 h: average Dmax %; for DC50: MV4-11 cells, read-out: SMARCA4 MSD MV411 degradation 24 h: Mean external-Abs DC50. The gist of the method:
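Protein levels quantified by LI-COR Western blot (beta-actin loading control) in RIPA lysates of MV4-11 cells after 24 h compound exposure. Degradation reported as DC50, Dmax % at 24 h and SMARCA2 vs SMARCA4 selectivity, each binned into letter codes.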
In general terms: In western blotting, separated proteins are transferred to a membrane and probed.

The target of experiment [3] is T1, SMARCA2. The experiment is described as follows: SMARCA2 Western blot degradation in MV4-11 cells. On the set-up: SMARCA2/SMARCA4 protein degradation selectivity in MV4-11 cells; endogenous in cells; host or cells: MV4-11. The note with it: for Dmax: MV4-11, MV4-11 cells, read-out: SMARCA2 MSD MV411 degradation 24 h: average Dmax %; for Dmax / DC50: 24 h; for DC50 / Selectivity in MV411: MV4-11 cells; for DC50: read-out: SMARCA2 MSD MV411 degradation 24 h: Mean external-Abs DC50; for Selectivity in MV411: SMARCA2/4 selectivity.

T2 sequence (P51532 whole entry): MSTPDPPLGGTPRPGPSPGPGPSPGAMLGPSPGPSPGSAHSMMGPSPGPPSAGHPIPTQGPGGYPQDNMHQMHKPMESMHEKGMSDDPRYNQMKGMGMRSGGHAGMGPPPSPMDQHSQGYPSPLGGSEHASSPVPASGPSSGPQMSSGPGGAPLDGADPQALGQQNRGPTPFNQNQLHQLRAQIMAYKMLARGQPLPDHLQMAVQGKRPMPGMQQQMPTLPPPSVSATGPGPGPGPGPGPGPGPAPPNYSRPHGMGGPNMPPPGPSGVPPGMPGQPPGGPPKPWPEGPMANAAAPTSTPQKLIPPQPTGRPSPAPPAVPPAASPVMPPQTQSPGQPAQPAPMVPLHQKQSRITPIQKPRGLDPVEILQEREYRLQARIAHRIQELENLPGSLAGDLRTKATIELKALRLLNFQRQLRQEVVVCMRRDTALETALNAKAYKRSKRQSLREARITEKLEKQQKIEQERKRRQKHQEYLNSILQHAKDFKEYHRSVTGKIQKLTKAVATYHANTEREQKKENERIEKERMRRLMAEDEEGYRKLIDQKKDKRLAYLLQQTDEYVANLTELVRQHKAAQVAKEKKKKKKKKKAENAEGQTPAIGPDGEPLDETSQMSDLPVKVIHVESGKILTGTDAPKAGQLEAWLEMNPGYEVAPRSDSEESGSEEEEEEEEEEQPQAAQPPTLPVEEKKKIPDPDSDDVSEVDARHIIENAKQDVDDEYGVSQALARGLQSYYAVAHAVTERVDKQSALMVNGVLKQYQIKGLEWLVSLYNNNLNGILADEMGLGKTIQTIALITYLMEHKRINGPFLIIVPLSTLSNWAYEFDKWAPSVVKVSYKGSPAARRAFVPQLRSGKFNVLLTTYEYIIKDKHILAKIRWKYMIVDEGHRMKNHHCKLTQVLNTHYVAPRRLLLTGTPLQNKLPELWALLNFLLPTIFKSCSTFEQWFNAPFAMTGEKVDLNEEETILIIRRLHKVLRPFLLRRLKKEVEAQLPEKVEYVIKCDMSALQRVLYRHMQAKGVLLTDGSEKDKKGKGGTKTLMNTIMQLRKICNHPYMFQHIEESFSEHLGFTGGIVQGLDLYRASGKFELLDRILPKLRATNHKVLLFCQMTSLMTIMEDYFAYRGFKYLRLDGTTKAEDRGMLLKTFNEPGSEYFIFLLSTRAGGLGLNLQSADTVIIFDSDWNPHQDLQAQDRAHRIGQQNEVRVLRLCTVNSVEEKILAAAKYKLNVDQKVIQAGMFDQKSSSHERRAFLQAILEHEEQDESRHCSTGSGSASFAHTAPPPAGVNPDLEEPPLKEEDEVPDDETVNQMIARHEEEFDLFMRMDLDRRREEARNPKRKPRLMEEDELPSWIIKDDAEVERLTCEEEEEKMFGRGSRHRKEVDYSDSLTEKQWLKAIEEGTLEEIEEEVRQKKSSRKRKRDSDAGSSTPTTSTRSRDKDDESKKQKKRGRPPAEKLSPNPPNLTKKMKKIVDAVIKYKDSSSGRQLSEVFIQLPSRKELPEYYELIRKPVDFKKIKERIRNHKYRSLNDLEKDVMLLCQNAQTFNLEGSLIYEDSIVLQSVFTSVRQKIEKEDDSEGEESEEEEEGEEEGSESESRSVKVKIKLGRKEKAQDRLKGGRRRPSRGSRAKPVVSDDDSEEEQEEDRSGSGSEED

For `C#Cc1ccc(CNC(=O)[C@@H]2C[C@@H](O)CN2C(=O)[C@@H](NC(=O)[C@H]2CCC3(CC2)C[C@H](N2CCC(N(C)CCN4CCN5c6cc(-c7ccccc7O)nnc6NC[C@H]5C4)CC2)C3)C(C)(C)C)cc1` (single isomer, unassigned) [I-246], the figures for the Dmax in experiment [1], in experiment [2] and in experiment [3] were > 90%, 50 to 70% and 70 to 90%, respectively. Further, the 50% degradation concentration (DC50) in experiment [1] is > 0.1 µM; in experiment [2], > 0.1 µM; in experiment [3] it was 0.01 to 0.1 µM. Further, in experiment [3], the “Selectivity in MV411” value is listed as “C (C (10-100 fold))”.

For `C#Cc1ccc([C@H](C)NC(=O)[C@@H]2C[C@@H](O)CN2C(=O)[C@@H](NC(=O)[C@H]2CC3(C2)C[C@H](c2cnc(N4CCC(N5CCN6c7cc(-c8ccccc8O)nnc7NC[C@H]6C5)CC4)nc2)C3)C(C)(C)C)cc1` (stereo partly shown) [I-362], in experiment [1], the Dmax is > 90% and the DC50 lay within 0.01 to 0.05 µM. Moreover, in experiment [2], the greatest degradation seen (Dmax) was 70 to 90% and the DC50 was > 0.1 µM. In experiment [3], the maximal degradation (Dmax) was 70 to 90%, the DC50 lay in the range of 0.001 to 0.01 µM and the “Selectivity in MV411” value is “C (C (10-100 fold))”.

Take `C#Cc1ccc(CNC(=O)[C@@H]2C[C@@H](O)CN2C(=O)[C@@H](NC(=O)N2CCN(C[C@H]3CC[C@@H](N4CCC(N5CCN6c7cc(-c8ccccc8O)nnc7NC[C@H]6C5)CC4)CC3)CC2)C(C)(C)C)cc1` [I-255]: in experiment [1], the Dmax was 70 to 90% and the half-maximal degradation concentration (DC50) was > 0.1 µM. In experiment [2], the Dmax is < 50% and the DC50 was > 0.1 µM. Besides, in experiment [3], the Dmax fell in the range of 70 to 90%, the 50% degradation concentration (DC50) is 0.01 to 0.1 µM and the “Selectivity in MV411” value is recorded as “B (B (>100-500 fold))”.

Take `C#Cc1ccc(CNC(=O)[C@@H]2C[C@@H](O)CN2C(=O)[C@@H](NC(=O)N2CC3(CC(N4CCC(N5CCC(N6CCN7c8cc(-c9ccccc9O)nnc8NC[C@H]7C6)CC5)CC4)C3)C2)C(C)(C)C)cc1` [I-215]: in experiment [1], the Dmax is > 90% and the DC50 is 0.05 to 0.1 µM. Besides, in experiment [2], the Dmax was 70 to 90% and the DC50 was in the range of 0.01 to 0.1 µM. Moreover, in experiment [3], the Dmax was > 90%, the 50% degradation concentration (DC50) is 0.001 to 0.01 µM and the “Selectivity in MV411” value is listed as “C (C (10-100 fold))”.

Turning to `Cc1ncsc1-c1ccc(CNC(=O)[C@@H]2C[C@@H](O)CN2C(=O)[C@@H](NC(=O)[C@H]2CC[C@H](c3ccc(-c4cnc(N5CCN6c7cc(-c8ccccc8O)nnc7NC[C@H]6C5)nc4)cc3)CC2)C(C)(C)C)cc1` [I-85], the Dmax in experiment [1] is > 90%; in experiment [2], < 50%; in experiment [3] it was 70 to 90%. In addition, the DC50 is 0.05 to 0.1 µM in experiment [1], > 0.1 µM in experiment [2] and 0.01 to 0.1 µM in experiment [3]. For the same molecule, the “Selectivity in MV411” value in experiment [3] is given as “C (C (10-100 fold))”.

For the molecule `C#Cc1ccc(CNC(=O)[C@@H]2C[C@@H](O)CN2C(=O)[C@@H](NC(=O)N2CC3(CC(N4CCC(N5CCc6[nH]c7nnc(-c8ccccc8O)cc7c6[C@H]5C)CC4)C3)C2)C(C)(C)C)cc1` [I-191], in experiment [1], the Dmax is > 90% and the DC50 is > 0.1 µM. In experiment [2], the Dmax is 70 to 90% and the DC50 is > 0.1 µM. For the same molecule, in experiment [3], the Dmax lay within 70 to 90%, the DC50 lay in the range of 0.001 to 0.01 µM and the “Selectivity in MV411” value is given as “C (C (10-100 fold))”.

Consider `C#Cc1ccc(CNC(=O)[C@@H]2C[C@@H](O)CN2C(=O)[C@@H](NC(=O)[C@H]2CC3(C2)C[C@H](N2CCC(N4CCC(N5CCN6c7cc(-c8ccccc8O)nnc7NC[C@H]6C5)CC4)CC2)C3)C(C)(C)C)c(OC)c1` (single isomer, unassigned) [I-231], for which, in experiment [1], the maximal degradation (Dmax) is > 90% and the DC50 fell in the range of 0.05 to 0.1 µM. Further, in experiment [2], the Dmax lay within 50 to 70% and the DC50 is > 0.1 µM. Further, in experiment [3], the Dmax was > 90%, the DC50 is 0.001 to 0.01 µM and the “Selectivity in MV411” value is recorded as “C (C (10-100 fold))”.

One may read the Dmax as the greatest extent of degradation seen. Usually DC50 stands for the concentration at which degradation of the target reaches its halfway point.
